In ChEMBL document CHEMBL1132780, “Synthesis and NK1/NK2 receptor activity of substituted-4(Z)-(methoxyimino)pentyl-1-piperazines” (Bioorg Med Chem Lett, 2000):

Tests used:
Substance-P receptor = Substance-P receptor (Homo sapiens, UniProt P25103); test: Inhibitory activity against human tachykinin receptor 1
Substance-K receptor = biological target: T1, Substance-K receptor (Homo sapiens, UniProt P21452); test: Inhibitory activity against human tachykinin receptor 2
T1 sequence (P21452 whole entry): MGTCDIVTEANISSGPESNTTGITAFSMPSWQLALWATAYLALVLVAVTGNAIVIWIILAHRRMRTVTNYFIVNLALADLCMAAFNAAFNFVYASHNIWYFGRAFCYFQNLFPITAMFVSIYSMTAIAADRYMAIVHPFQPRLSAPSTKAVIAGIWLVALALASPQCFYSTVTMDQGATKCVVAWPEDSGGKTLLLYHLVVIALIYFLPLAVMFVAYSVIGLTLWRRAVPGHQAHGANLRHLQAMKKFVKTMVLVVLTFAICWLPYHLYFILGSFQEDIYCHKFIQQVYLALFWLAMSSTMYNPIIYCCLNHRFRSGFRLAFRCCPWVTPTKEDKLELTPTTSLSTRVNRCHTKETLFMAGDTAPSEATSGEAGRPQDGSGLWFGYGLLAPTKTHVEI

Substance-P receptor, sequence (P25103 whole entry): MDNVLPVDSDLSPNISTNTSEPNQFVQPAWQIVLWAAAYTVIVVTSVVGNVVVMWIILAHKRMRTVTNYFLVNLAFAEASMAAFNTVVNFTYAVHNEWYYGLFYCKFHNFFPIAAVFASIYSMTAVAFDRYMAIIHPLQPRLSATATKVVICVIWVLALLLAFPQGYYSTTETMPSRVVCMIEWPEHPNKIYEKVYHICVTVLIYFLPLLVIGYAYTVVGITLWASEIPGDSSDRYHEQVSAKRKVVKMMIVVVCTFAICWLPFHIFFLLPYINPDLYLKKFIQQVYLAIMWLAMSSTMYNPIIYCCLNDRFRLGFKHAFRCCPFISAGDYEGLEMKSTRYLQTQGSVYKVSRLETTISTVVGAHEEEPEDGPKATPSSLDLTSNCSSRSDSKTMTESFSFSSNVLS

**Q.** Which Ki (Substance-P receptor) does the source give for `CO/N=C(\COCc1cc(C(F)(F)F)cc(C(F)(F)F)c1)C(CCN1CCN(CC(=O)N2CCC(NC(C)=O)C2)CC1)c1ccc(Cl)c(Cl)c1` (configuration not stated) here?
**A.** 9 nM

**Q.** And the Ki (Substance-K receptor)?
**A.** 48 nM

**Q.** For `CO/N=C(\COCc1cc(C(F)(F)F)cc(C(F)(F)F)c1)C(CCN1CCN(C)CC1)c1ccc(Cl)c(Cl)c1` (configuration not stated), which Ki (Substance-P receptor) is on record?
**A.** 61 nM

**Q.** And the Ki (Substance-K receptor)?
**A.** 200 nM

**Q.** What does the source list for `CO/N=C(\COCc1cc(C(F)(F)F)cc(C(F)(F)F)c1)C(CCN1CCN(CC(=O)NC2CC2)CC1)c1ccc(Cl)c(Cl)c1` (configuration not stated)?
**A.** Ki (Substance-P receptor): 62 nM; Ki (Substance-K receptor): 259 nM

**Q.** How did the Ki (Substance-P receptor) turn out when `CO/N=C(\COCc1cc(C(F)(F)F)cc(C(F)(F)F)c1)C(CCN1CCN(CC(=O)N2CCc3ccccc3C2)CC1)c1ccc(Cl)c(Cl)c1` (configuration not stated) was run?
**A.** 125 nM

**Q.** What about the Ki (Substance-K receptor) of the same compound?
**A.** 566 nM

**Q.** For `CO/N=C(\COCc1cc(C(F)(F)F)cc(C(F)(F)F)c1)C(CCN1CCN(CC(=O)N2CCCCC2)CC1)c1ccc(Cl)c(Cl)c1` (configuration not stated), which Ki (Substance-P receptor) is on record?
**A.** 82 nM

**Q.** And the Ki (Substance-K receptor)?
**A.** 208 nM

**Q.** Which Ki (Substance-P receptor) does the source give for `CO/N=C(\COCc1cc(C(F)(F)F)cc(C(F)(F)F)c1)C(CCN1CCN(c2ncccn2)CC1)c1ccc(Cl)c(Cl)c1` (configuration not stated) here?
**A.** 70 nM

**Q.** What about the Ki (Substance-K receptor) of the same compound?
**A.** 217 nM

**Q.** Which results are given for `CO/N=C(\COCc1cc(C(F)(F)F)cc(C(F)(F)F)c1)C(CCN1CCN(CC(=O)N2CCOCC2)CC1)c1ccc(Cl)c(Cl)c1` (configuration not stated)?
**A.** Ki (Substance-P receptor): 19 nM; Ki (Substance-K receptor): 28 nM

**Q.** For `CO/N=C(\COCc1cc(C(F)(F)F)cc(C(F)(F)F)c1)C(CCN1CCN(CC(=O)N(C(C)C)C(C)C)CC1)c1ccc(Cl)c(Cl)c1` (configuration not stated), which Ki (Substance-P receptor) is on record?
**A.** 82 nM

**Q.** What about the Ki (Substance-K receptor) of the same compound?
**A.** 170 nM

**Q.** With `CO/N=C(\COCc1cc(C(F)(F)F)cc(C(F)(F)F)c1)C(CCN1CCN(CC(=O)N2CCC(N(C)C)C2)CC1)c1ccc(Cl)c(Cl)c1` (configuration not stated) as the compound, how does the Ki (Substance-P receptor) read?
**A.** 14 nM

**Q.** And the Ki (Substance-K receptor)?
**A.** 95 nM

**Q.** Which results are given for `CO/N=C(\COCc1cc(C(F)(F)F)cc(C(F)(F)F)c1)C(CCN1CCN(CC(=O)N2CCC(O)C2)CC1)c1ccc(Cl)c(Cl)c1` (configuration not stated)?
**A.** Ki (Substance-P receptor): 16 nM; Ki (Substance-K receptor): 30 nM

**Q.** With `CCOC(=O)C1CCN(C(=O)CN2CCN(CCC(/C(COCc3cc(C(F)(F)F)cc(C(F)(F)F)c3)=N/OC)c3ccc(Cl)c(Cl)c3)CC2)CC1` (configuration not stated) as the compound, how does the Ki (Substance-P receptor) read?
**A.** 24 nM

**Q.** And the Ki (Substance-K receptor)?
**A.** 409 nM

**Q.** How did the Ki (Substance-P receptor) turn out when `CO/N=C(\COCc1cc(C(F)(F)F)cc(C(F)(F)F)c1)C(CCN1CCN(CC(=O)N2CCCC2)CC1)c1ccc(Cl)c(Cl)c1` (configuration not stated) was run?
**A.** 14 nM

**Q.** And the Ki (Substance-K receptor)?
**A.** 21 nM

**Q.** For `CO/N=C(\COCc1cc(C(F)(F)F)cc(C(F)(F)F)c1)C(CCN1CCN(CC(=O)N2CCCC(O)C2)CC1)c1ccc(Cl)c(Cl)c1` (configuration not stated), which Ki (Substance-P receptor) is on record?
**A.** 13 nM

**Q.** What about the Ki (Substance-K receptor) of the same compound?
**A.** 38 nM

**Q.** Which Ki (Substance-P receptor) does the source give for `CO/N=C(\COCc1cc(C(F)(F)F)cc(C(F)(F)F)c1)C(CCN1CCN(CC(=O)Nc2ccccc2)CC1)c1ccc(Cl)c(Cl)c1` (configuration not stated) here?
**A.** 125 nM

**Q.** And the Ki (Substance-K receptor)?
**A.** > 680 nM

**Q.** Which results are given for `CO/N=C(\COCc1cc(C(F)(F)F)cc(C(F)(F)F)c1)C(CCN1CCN(CC(=O)N(C)C2CCCCC2)CC1)c1ccc(Cl)c(Cl)c1` (configuration not stated)?
**A.** Ki (Substance-P receptor): 113 nM; Ki (Substance-K receptor): 368 nM

**Q.** What does the source list for `CO/N=C(\COCc1cc(C(F)(F)F)cc(C(F)(F)F)c1)C(CCN1CCN(CC(=O)N2CCC2)CC1)c1ccc(Cl)c(Cl)c1` (configuration not stated)?
**A.** Ki (Substance-P receptor): 23 nM; Ki (Substance-K receptor): 33 nM

**Q.** Which Ki (Substance-P receptor) does the source give for `CO/N=C(\COCc1cc(C(F)(F)F)cc(C(F)(F)F)c1)C(CCN1CCN(C2CCCCC2)CC1)c1ccc(Cl)c(Cl)c1` (configuration not stated) here?
**A.** 53 nM

**Q.** And the Ki (Substance-K receptor)?
**A.** 128 nM

**Q.** Which results are given for `CO/N=C(\COCc1cc(C(F)(F)F)cc(C(F)(F)F)c1)C(CCN1CCN(c2ccccc2)CC1)c1ccc(Cl)c(Cl)c1` (configuration not stated)?
**A.** Ki (Substance-P receptor): 181 nM; Ki (Substance-K receptor): 978 nM

**Q.** Which Ki (Substance-P receptor) does the source give for `CO/N=C(\COCc1cc(C(F)(F)F)cc(C(F)(F)F)c1)C(CCN1CCN(CC(=O)N2CCCCC2CO)CC1)c1ccc(Cl)c(Cl)c1` (configuration not stated) here?
**A.** 47 nM

**Q.** And the Ki (Substance-K receptor)?
**A.** 52 nM

**Q.** Which Ki (Substance-P receptor) does the source give for `CO/N=C(\COCc1cc(C(F)(F)F)cc(C(F)(F)F)c1)C(CCN1CCN(CC(=O)N2CCCC3CCCCC32)CC1)c1ccc(Cl)c(Cl)c1` (configuration not stated) here?
**A.** 136 nM

**Q.** What about the Ki (Substance-K receptor) of the same compound?
**A.** 477 nM

**Q.** Which results are given for `CO/N=C(\COCc1cc(C(F)(F)F)cc(C(F)(F)F)c1)C(CCN1CCN(CC(=O)N2CC(O)C2)CC1)c1ccc(Cl)c(Cl)c1` (configuration not stated)?
**A.** Ki (Substance-P receptor): 22 nM; Ki (Substance-K receptor): 31 nM

**Q.** For `CO/N=C(\COCc1cc(C(F)(F)F)cc(C(F)(F)F)c1)C(CCN1CCN(CC(=O)NC2CCc3ccccc32)CC1)c1ccc(Cl)c(Cl)c1` (configuration not stated), which Ki (Substance-P receptor) is on record?
**A.** 136 nM

**Q.** And the Ki (Substance-K receptor)?
**A.** > 680 nM

**Q.** `CO/N=C(\COCc1cc(C(F)(F)F)cc(C(F)(F)F)c1)C(CCN1CCN(CC(=O)NCC2CCCO2)CC1)c1ccc(Cl)c(Cl)c1` (configuration not stated) was tested. Which Ki (Substance-P receptor) did it give?
**A.** 20 nM

**Q.** And the Ki (Substance-K receptor)?
**A.** 266 nM

**Q.** Which Ki (Substance-P receptor) does the source give for `CO/N=C(\COCc1cc(C(F)(F)F)cc(C(F)(F)F)c1)C(CCN1CCN(CC(=O)N2CCC[C@H]2C(N)=O)CC1)c1ccc(Cl)c(Cl)c1` (some centres not stated) here?
**A.** 24 nM

**Q.** What about the Ki (Substance-K receptor) of the same compound?
**A.** 26 nM

**Q.** `CO/N=C(\COCc1cc(C(F)(F)F)cc(C(F)(F)F)c1)C(CCN1CCNCC1)c1ccc(Cl)c(Cl)c1` (configuration not stated) was tested. Which Ki (Substance-P receptor) did it give?
**A.** 30 nM

**Q.** What about the Ki (Substance-K receptor) of the same compound?
**A.** 738 nM

**Q.** With `CCOCCCNC(=O)CN1CCN(CCC(/C(COCc2cc(C(F)(F)F)cc(C(F)(F)F)c2)=N/OC)c2ccc(Cl)c(Cl)c2)CC1` (configuration not stated) as the compound, how does the Ki (Substance-P receptor) read?
**A.** 39 nM

**Q.** What about the Ki (Substance-K receptor) of the same compound?
**A.** 382 nM
